Laboratory results reported in article PMC10282093, “Structural basis of α1A-adrenergic receptor activation and recognition by an extracellular nanobody” (Nature Communications, 2023).
Values joined by “and” are separate entries in the source; they are usually repeats but may differ in a detail not shown here. Identical values can stand only once. Like-named read-outs stand apart in the source and are kept apart here. Each block holds one molecule with its values, some of them ahead of it.

Columns and labels:
α1AAR [1] = molecular target: T1, α1AAR (Homo sapiens, UniProt P35348); assay: Glo-sensor cAMP signaling assay with engineered Gsq protein in HEK293T cells; settings: HEK-293T
T1 sequence (P35348 1-466): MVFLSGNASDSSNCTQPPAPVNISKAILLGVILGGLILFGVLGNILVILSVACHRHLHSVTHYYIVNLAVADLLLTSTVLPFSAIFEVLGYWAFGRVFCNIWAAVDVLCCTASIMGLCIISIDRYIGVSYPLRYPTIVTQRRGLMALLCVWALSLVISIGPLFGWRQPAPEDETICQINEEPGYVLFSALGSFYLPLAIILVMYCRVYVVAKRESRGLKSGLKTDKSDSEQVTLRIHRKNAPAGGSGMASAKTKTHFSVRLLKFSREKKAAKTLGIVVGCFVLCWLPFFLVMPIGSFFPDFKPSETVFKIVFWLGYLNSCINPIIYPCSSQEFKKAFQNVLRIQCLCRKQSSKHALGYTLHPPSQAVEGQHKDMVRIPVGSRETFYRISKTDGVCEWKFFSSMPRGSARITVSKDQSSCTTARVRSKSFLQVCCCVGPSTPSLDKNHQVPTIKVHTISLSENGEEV

HEK293T cells (mock) = assay: Glo-sensor cAMP assay, mock (negative control); assay type: cell-based
α1AAR [2] = molecular target: T2, α1AAR (Homo sapiens, UniProt P35348); assay: [3H]prazosin radioligand binding, Sf9 membranes; settings: for [3H]prazosin binding: SupFig 5b, listed as Tam
T2 sequence (P35348 1-370): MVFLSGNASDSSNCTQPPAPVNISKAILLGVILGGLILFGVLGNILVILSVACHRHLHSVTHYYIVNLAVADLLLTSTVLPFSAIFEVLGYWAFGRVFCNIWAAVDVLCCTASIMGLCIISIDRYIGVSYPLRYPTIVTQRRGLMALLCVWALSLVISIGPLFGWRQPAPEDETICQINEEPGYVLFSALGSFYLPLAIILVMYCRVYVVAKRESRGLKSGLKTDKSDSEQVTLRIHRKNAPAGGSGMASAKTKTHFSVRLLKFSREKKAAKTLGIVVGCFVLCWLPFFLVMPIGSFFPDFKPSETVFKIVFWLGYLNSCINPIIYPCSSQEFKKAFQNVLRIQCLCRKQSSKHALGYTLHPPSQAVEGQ

activation at 0.01 µM (α1AAR [1]; 5 min, read-out: α1AAR activation (Noradrenaline %), 10 nM NA, 5 min): 27.1%
activation at 0.01 µM (α1AAR [1]; 5.5 min, read-out: α1AAR activation (Noradrenaline %), 10 nM NA, […]): 32.4%
activation at 0.01 µM (α1AAR [1]; 0.1 h, read-out: α1AAR activation (Noradrenaline %), 10 nM NA, 6 min): 36.3%
activation at 0.01 µM (α1AAR [1]; 6.5 min, read-out: α1AAR activation (Noradrenaline %), 10 nM NA, […]): 40.4%
activation at 0.01 µM (α1AAR [1]; 7 min, read-out: α1AAR activation (Noradrenaline %), 10 nM NA, 7 min): 44.7%
activation at 0.01 µM (α1AAR [1]; 0.125 h, read-out: α1AAR activation (Noradrenaline %), 10 nM NA, 7.5 min): 51.2%
activation at 0.01 µM (α1AAR [1]; 8 min, read-out: α1AAR activation (Noradrenaline %), 10 nM NA, 8 min): 54.9%
activation at 0.01 µM (α1AAR [1]; 8.5 min, read-out: α1AAR activation (Noradrenaline %), 10 nM NA, 8.5 min): 60.5%
activation at 0.01 µM (α1AAR [1]; 0.175 h, read-out: α1AAR activation (Noradrenaline %), 10 nM NA, 10.5 min): 78.1%
activation at 0.01 µM (α1AAR [1]; 11 min, read-out: α1AAR activation (Noradrenaline %), 10 nM NA, 11 min): 83.6%
activation at 0.01 µM (α1AAR [1]; 11.5 min, read-out: α1AAR activation (Noradrenaline %), 10 nM NA, […]): 88.1%
activation at 0.01 µM (α1AAR [1]; 0.2 h, read-out: α1AAR activation (Noradrenaline %), 10 nM NA, 12 min): 90.9%
activation at 0.01 µM (α1AAR [1]; 12.5 min, read-out: α1AAR activation (Noradrenaline %), 10 nM NA, 12.5 min): 92.5%
activation at 0.01 µM (α1AAR [1]; 13 min, read-out: α1AAR activation (Noradrenaline %), 10 nM NA, 13 min): 95.2%
activation at 0.01 µM (α1AAR [1]; 0.225 h, read-out: α1AAR activation (Noradrenaline %), 10 nM NA, 13.5 min): 98.2%
activation at 0.01 µM (α1AAR [1]; 14 min, read-out: α1AAR activation (Noradrenaline %), 10 nM NA, 14 min): 99.3%
activation at 0.01 µM (α1AAR [1]; 14.5 min, read-out: α1AAR activation (Noradrenaline %), 10 nM NA, […]): 99.1%
activation at 0.01 µM (α1AAR [1]; 0.25 h, read-out: α1AAR activation (Noradrenaline %), 10 nM NA, 15 min): 102%
activation at 0.01 µM (α1AAR [1]; 15.5 min, read-out: α1AAR activation (Noradrenaline %), 10 nM NA, 15.5 min): 102%
activation at 0.01 µM (α1AAR [1]; 16 min, read-out: α1AAR activation (Noradrenaline %), 10 nM NA, 16 min): 101%
activation at 0.01 µM (α1AAR [1]; 17 min, read-out: α1AAR activation (Noradrenaline %), 10 nM NA, 17 min): 99.9%
activation at 0.01 µM (α1AAR [1]; 17.5 min, read-out: α1AAR activation (Noradrenaline %), 10 nM NA, 17.5 min): 99.3%
activation at 0.01 µM (α1AAR [1]; 0.3 h, read-out: α1AAR activation (Noradrenaline %), 10 nM NA, 18 min): 99.3%
activation at 0.01 µM (α1AAR [1]; 18.5 min, read-out: α1AAR activation (Noradrenaline %), 10 nM NA, 18.5 min): 99%
activation at 0.01 µM (α1AAR [1]; 19 min, read-out: α1AAR activation (Noradrenaline %), 10 nM NA, 19 min): 96.4%
activation at 0.01 µM (α1AAR [1]; 0.325 h, read-out: α1AAR activation (Noradrenaline %), 10 nM NA, 19.5 min): 97.2%
activation at 0.01 µM (α1AAR [1]; 20 min, read-out: α1AAR activation (Noradrenaline %), 10 nM NA, 20 min): 96%
activation at 0.01 µM (α1AAR [1]; […], read-out: α1AAR activation (Noradrenaline %), 10 nM NA, 9 min): 64.4%
activation at 0.01 µM (α1AAR [1]; […], read-out: α1AAR activation (Noradrenaline %), 10 nM NA, 16.5 min): 100%
activation at 100 µM (α1AAR [1]; read-out: α1AAR activation (Noradrenaline %), NA Log[M] -4): 86.3%
activation at 1 µM (α1AAR [1]; read-out: α1AAR activation (Noradrenaline %), NA Log[M] -6): 105%
activation at 0.1 µM (α1AAR [1]; read-out: α1AAR activation (Noradrenaline %), NA Log[M] -7): 82.8%
activation at 0.01 µM (α1AAR [1]; read-out: α1AAR activation (Noradrenaline %), NA Log[M] -8): 45.2%
Molecule: NC[C@H](O)c1ccc(O)c(O)c1 [Noradrenaline, noradrenaline]
cAMP Glo-sensor signal (Noradrenaline %) (HEK293T cells (mock); NA Log[M] -4, listed as NA): 41.093% and 40.8624% and 40.5271%
cAMP Glo-sensor signal (Noradrenaline %) (HEK293T cells (mock); NA Log[M] -5, listed as NA): 20.1779% and 21.0064% and 19.7646%
cAMP Glo-sensor signal (Noradrenaline %) (HEK293T cells (mock); NA Log[M] -6, listed as NA): 7.941% and 8.285% and 8.539%
cAMP Glo-sensor signal (Noradrenaline %) (HEK293T cells (mock); NA Log[M] -7, listed as NA): 6.318% and 5.663% and 5.337%
cAMP Glo-sensor signal (Noradrenaline %) (HEK293T cells (mock); NA Log[M] -8, listed as NA): 5.486% and 4.494% and 5.028%
cAMP Glo-sensor signal (Noradrenaline %) (HEK293T cells (mock); NA Log[M] -9, listed as NA): 5.1702% and 5.365% and 5.344%
cAMP Glo-sensor signal (Noradrenaline %) (HEK293T cells (mock); NA Log[M] -10, listed as NA): 5.58% and 5.603% and 5.064%
cAMP Glo-sensor signal (Noradrenaline %) (HEK293T cells (mock); NA Log[M] -11, listed as NA): 6.233% and 5.97% and 5.757%

Molecule: CCOc1ccccc1OCCN[C@H](C)Cc1ccc(OC)c(S(N)(=O)=O)c1 [Tamsulosin, tamsulosin]
[3H]prazosin binding (α1AAR [2]; Tam Log[M] -4): 3.325% and 3.807% and 3.682%
[3H]prazosin binding (α1AAR [2]; Tam Log[M] -5): 5.496% and 6.839% and 6.881%
[3H]prazosin binding (α1AAR [2]; Tam Log[M] -6): 11.244% and 11.6216% and 10.1426%
[3H]prazosin binding (α1AAR [2]; Tam Log[M] -7): 16.0268% and 19.0266% and 22.7187%
[3H]prazosin binding (α1AAR [2]; Tam Log[M] -8): 68.1875% and 65.3346% and 66.6562%
[3H]prazosin binding (α1AAR [2]; Tam Log[M] -9): 89.8993% and 114.569% and 102.297%
[3H]prazosin binding (α1AAR [2]; Tam Log[M] -10): 91.4097% and 102.161% and 96.6541%
[3H]prazosin binding (α1AAR [2]; Tam Log[M] -11): 80.1028% and 92.7732% and 127.271%

B1: Nb6: nanobody that engages the ICL3 of the inactive-state κ-opioid receptor (antibody, V domains shown)
VH: QVQLQESGGGLVQAGESLRLSCAASGTIFRLYDMGWYRRVSGNQRELVASITSGGSTKYGDSVKGRFTISRDNAKNTVYLQMSSLKPEDTAVYYCNAEYRTGIWEELLDGWGQGTQVTVSS
Normalized [3H]prazosin-binding (α1AAR [2]; with 5 μM Nb6): 88.7285% and 103.574% and 107.698%
